Measured values as given in paper PMC7536072, “Molecular and functional characterization of somatostatin-type signalling in a deuterostome invertebrate” (Open Biology, 2020).
“Also recorded” adds a separate entry of the source. Like-named read-outs stand apart in the source and are kept apart here. Bridges are numbered along the chain shown (N, C = ends). Where no end group is shown, it is not given here.

Tests used:
[1] = system: cardiac stomach preparations from A. rubens; experiment: in vitro relaxation of cardiac stomach preparations; set-up: species or system Asterias rubens; conditions: n = 6
Experimental: Synthetic ArSS2 ([…], with a disulfide bridge between the cysteine residues) was custom synthesized (Peptide Protein Research Ltd, Fareham, UK) to enable testing of its pharmacological effects on in vitro preparations of organs/muscles from A. rubens. ArSS2 was tested for its in vitro effects on the contractility of tube foot, apical muscle and cardiac stomach preparations from at least six different specimens of A. rubens. Individual tube foot preparations were dissected from starfish arms with their corresponding ampulla intact. Then cotton ligatures were tied around the ambulacral body wall and the tube foot disc and then the external epithelium of the tube foot was scraped off using a blunt scalpel blade to facilitate penetration of peptides when tested in vitro, as described previously. Apical muscle preparations were dissected from the aboral body wall with approximately 1 cm strips of apical muscle tied at each end with cotton ligatures. Cardiac stomach preparations were dissected as described previously and then were tied at the aboral side of the cardiac stomach and around the oesophagus with cotton ligatures. The dissected preparations were tied to a fixed metal hook orally and to a high-grade isotonic transducer (MLT0015; ADInstruments Ltd; Oxford, UK) aborally, suspended in a 20 ml aerated organ bath containing artificial seawater at approximately 11°C. The transducer was connected via a bridge amplifier (FE221 Bridge Amp, ADInstruments Ltd, Oxford, UK) to data acquisition hardware (PowerLab 2/36, ADInstruments Ltd, Oxford, UK). Data collected from PowerLab were visualized as traces and analysed using LabChart (v. 8.0.7) software installed on a laptop computer (Lenovo E540, Windows 7 Professional).
To examine the effects of ArSS2 on tube foot and cardiac stomach preparations, 10^−6 M acetylcholine (ACh) or artificial seawater (ASW) containing 30 mM added KCl was used to induce contraction of these preparations, respectively. Once a stable baseline contracted state was achieved, synthetic ArSS2 was added into the organ bath to sequentially achieve final concentrations in the range of 10^−10 to 10^−6 M. For these experiments, the contracting effect of 10^−6 M ACh or ASW containing 30 mM added KCl was defined as 100% and the relaxing effects of ArSS2 were then calculated as a percentage reversal of the 100% contracted state.
Experiments were performed where the effects of ArSS2, S2 and asterotocin (at 10^−7 and 10^−6 M) on cardiac stomach preparations (n = 6) were compared. For these experiments, the effect of 10^−7 or 10^−6 M S2 was defined as 100% and the effect of asterotocin or ArSS2 was calculated as a % of the effect of S2. To determine if there were significant differences in magnitude of the relaxing effects of the three peptides on cardiac stomach preparations, data were analysed statistically using a two-tailed Student's t-test in Prism 6.

[2] = system: cardiac stomach of A. rubens; experiment: in vivo cardiac stomach eversion after injection into the perivisceral coelom; set-up: species or system Asterias rubens; conditions: 10 µl 10^−3 M into perivisceral coelom, n = 10
Experimental: When starfish (A. rubens) feed, the cardiac stomach is relaxed and everted out of the mouth over the digestible soft tissues of prey (e.g. mussels). […] Therefore, because ArSS2 causes relaxation of cardiac stomach preparations in vitro, we investigated if ArSS2 also triggers cardiac stomach eversion when injected in vivo. Firstly, 15 medium-sized starfish were starved for one week to normalize their physiological status. A Hamilton […] 50 μl syringe (Sigma-Aldrich; Gillingham, UK) was used to inject 10 μl 1 mM ArSS2, or 10 μl 1 mM asterotocin (positive control) or 10 μl water (negative control) into the […] coelom of starfish. ArSS2 was tested on five individuals firstly and then the next day, asterotocin was tested on the same batch of five individuals. For another five individuals, asterotocin was tested first and then ArSS2 was tested on the following day. The remaining five individuals were injected with water as a control. Thus, both ArSS2 and asterotocin were tested on ten starfish. For each starfish, the test agent was injected via two sites in the dorsal body wall of the arms proximal to the junctions with the central disc region. Care was taken to inject test agents into the […] coelom and not into the cardiac stomach.

[3] = system: tube foot preparations from A. rubens; conditions: ref [67]; cited from earlier work
[4] = system: cardiac stomach preparations from A. rubens; conditions: cited from earlier work; for cardiac stomach relaxant activity: ref [64],[67]
From the text: Likewise, ArSS2 caused dose-dependent relaxation of cardiac stomach preparations at concentrations between ... || ArSS2 is widely expressed in the digestive system of A. rubens, including the peristomial membrane, cardiac stomach, pyloric stomach, pyloric duct, and pyloric caeca. In the cardiac stomach, ArSSP2 transcripts are detected in cells located in the mucosa layer and ArSS2-immunoreactivity is present in the adjacent basi-epithelial nerve plexus. Consistent with this expression of ArSS2 in the cardiac stomach, ArSS2 causes dose-dependent relaxation of cardiac stomach preparations.

[5] = system: apical muscle preparations from A. rubens; conditions: ref [67]; cited from earlier work
[6] = system: cardiac stomach of A. rubens; conditions: cited from earlier work
From the text: When starfish (A. rubens) feed, the cardiac stomach is relaxed and everted out of the mouth over the digestible soft tissues of prey (e.g. mussels). […] Therefore, because ArSS2 causes relaxation of cardiac stomach preparations in vitro, we investigated if ArSS2 also triggers cardiac stomach eversion when injected in vivo. Firstly, 15 medium-sized starfish were starved for one week to norm ... || Asterias rubens feeds by everting its cardiac stomach through a narrow oral opening (mouth) and over the digestible parts of its prey, and for this to be accomplished, the cardiac stomach must be in a relaxed state. Neuropeptides that cause cardiac stomach in vitro are therefore potential mediators of cardiac stomach eversion in vivo. […] Therefore, here we investigated if ArSS2 also triggers cardiac stomach ever ... || The in vitro relaxing effect of ArSS2 on the cardiac stomach of A. rubens is of interest from a physiological/behavioural perspective because relaxation of the cardiac stomach is required for the extraoral feeding behaviour of starfish where it is everted out of the mouth and over the digestible soft tissue of prey such as mussels.

ArSSR1 = experiment: GFP-aequorin luminescence receptor activation assay, CHO-K1 cells, ArSSR1 + Gα16; assay type: cell-based, Asterias rubens; conditions: ArSSR1
ArSSR2 = experiment: GFP-aequorin luminescence receptor activation assay, CHO-K1 cells, ArSSR2 + Gα16; assay type: cell-based, Asterias rubens; conditions: ArSSR2
ArSSR3 = experiment: GFP-aequorin luminescence receptor activation assay, CHO-K1 cells, ArSSR3 + Gα16; assay type: cell-based, Asterias rubens; conditions: ArSSR3
Chain of ArSSR3 (as listed by the source): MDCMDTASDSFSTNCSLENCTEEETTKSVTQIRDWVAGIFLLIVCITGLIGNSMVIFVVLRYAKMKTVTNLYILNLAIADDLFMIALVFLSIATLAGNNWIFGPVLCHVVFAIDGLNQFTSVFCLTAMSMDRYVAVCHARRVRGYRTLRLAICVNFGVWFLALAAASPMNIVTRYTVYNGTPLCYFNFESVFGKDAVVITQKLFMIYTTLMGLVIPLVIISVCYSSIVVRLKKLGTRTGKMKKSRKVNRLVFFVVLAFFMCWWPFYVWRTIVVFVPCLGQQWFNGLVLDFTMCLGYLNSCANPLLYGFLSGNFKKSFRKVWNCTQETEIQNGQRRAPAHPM

[7] = system: CHO-K1 cells transfected with an empty pcDNA3.1(+) vector; experiment: luminescence control assay, CHO-K1 cells transfected with empty vector; assay type: cell-based, Chinese hamster; conditions: 10^-12 to 10^-5 M (figure S12), 0.1 % Triton X-100 = 100%
Experimental: In order to characterize the candidate SS-type receptors, a G-protein-dependent receptor activation assay was employed. Chinese hamster ovary (CHO)-K1 cells stably overexpressing the calcium-sensitive bioluminescent reporter GFP-aequorin fusion protein (G5A) were used as a heterologous expression system. Plasmids containing A. rubens SS-type receptor cDNAs were co-transfected with the promiscuous human Gα16, which is widely used for receptor deorphanization assays. […] After 3 h incubation, a fixed volume of cells was injected sequentially into each well containing different concentrations of peptides using a FLUOstar Omega Plate Reader (BMG LABTECH, Ortenberg, Germany). Luminescence values were recorded over a 35 s period after injection. The total luminescence of each well over the 35 s period was calculated and normalized to the maximum value obtained in each experiment (100% activation) and to the value obtained with the vehicle media (0% activation). […] EC50 values were calculated from dose–response curves using Prism 6. The luminescence responses triggered by 10^−5 M ArSS1, 10^−5 M ArSS2 and vehicle media were analysed by one-way ANOVA using Bonferroni's multiple comparisons post hoc test in Prism 6. […]

[8] = injected in vivo, ref [66],[67]
[9] = 10^−5 M, vs BSA media (control) and, for ArSS2, vs ArSS1, one-way ANOVA, Bonferroni

Which results are given for “CLVQDCPEG-NH2 (disulfide 1-6 (inferred)) [asterotocin, reference compound]”?
relaxing effect compared with S2 ([1]; 10^−6 M, two-tailed Student's t-test p = 0.0255): significantly larger than the effect S2; relaxing effect compared with ArSS2 ([1]; 10^−6 M, two-tailed Student's t-test p = 0.0483): significantly larger; magnitude of cardiac stomach relaxing action relative to S2 ([1]; 10^−7 M, KCl-contracted, mean): 3.5 times the effect of S2; relaxing effect compared with S2 ([1]; 10^−7 M, two-tailed Student's t-test p = 0.0055): significantly larger than the effect of S2; relaxing effect compared with ArSS2 ([1]; 10^−7 M, two-tailed Student's t-test p = 0.0250): significantly larger; mean maximal eversion, area of everted cardiac stomach ([2]; 10 min recording): ~125 % of the area of the central disc region; incidence of cardiac stomach eversion [2]: all of the animals; time of mean maximal eversion after injection [2]: approximately 9 min; relaxation of tube foot preparations [3]: caused relaxation of cardiac stomach and apical muscle preparations but not tube feet; cardiac stomach relaxant activity [4]: act as cardiac stomach relaxants; effectiveness as cardiac stomach relaxant compared with S2 ([4]; ref [67]): much more effective as a cardiac stomach relaxant than S2; relaxation of cardiac stomach preparations ([4]; ref [67]): caused relaxation of cardiac stomach and apical muscle preparations but not tube feet; relaxation of apical muscle preparations [5]: caused relaxation of cardiac stomach and apical muscle preparations but not tube feet; cardiac stomach eversion ([6]; 100 µl 10^−3 M into perivisceral coelom, ref [67]): complete eversion of the cardiac stomach; cardiac stomach eversion [6, 8]: induce cardiac stomach eversion when injected in vivo; effectiveness and potency in triggering cardiac stomach eversion compared with S2 ([6]; ref [67]): much more effective and potent than S2

Which “luminescence compared with control” value (ArSSR1; [9]) does the source give for “KCIGRFQPFSMPC (disulfide 2-13 (inferred)) [ArSS1, 13-residue SS-type neuropeptide of Asterias rubens derived from ArSSP1 (…)]” here?
Its value is “not significantly different”.

And the triggering of luminescence (ArSSR1; 10^−21 to 10^−4 M)?
Its triggering of luminescence is “did not trigger luminescence”.

And the “luminescence compared with control” value (ArSSR2; [9])?
The value was “not significantly different”.

And the triggering of luminescence (ArSSR2; 10^−21 to 10^−4 M)?
Its triggering of luminescence is “did not trigger luminescence”.

What about the “luminescence compared with control” value (ArSSR3; [9]) of the same substance?
Its value is “not significantly different”.

And the triggering of luminescence (ArSSR3; 10^−21 to 10^−4 M)?
The triggering of luminescence was “did not trigger luminescence”.

And the “luminescence response in cells with empty vector” value [7]?
The value was “do not trigger luminscence; also recorded: Neither ArSS1 nor ArSS2 elicited responses”.

Which results are given for “SGPYSFNSGLTF-NH2 [S2, SALMFamide neuropeptide S2 (…-NH2)]”?
magnitude of cardiac stomach relaxing action relative to asterotocin ([1]; 10^−6 M, KCl-contracted, mean): approximately 50 % of the effect of asterotocin; cardiac stomach relaxant activity [4]: act as cardiac stomach relaxants; relaxation of tube foot and/or cardiac stomach preparations ([4]; tube foot and/or cardiac stomach, ref [64],[66]): cause relaxation of tube foot and/or cardiac stomach preparations; cardiac stomach eversion [6, 8]: induce cardiac stomach eversion when injected in vivo
